# Assay results: patent publication US8722849B2, “Polypeptides” (Novo Nordisk A/S, priority 2011, dated 2014)
# pEC50: −log10 of the molar value. Where two headings read alike, the source gives them in different places. Starred links: 1 amine or outer side, 2 acyl side, 3 side chain; linkers in the order of their positions; H or OH if unused. Positions of bridges follow the written chain, without caps; N, C: chain ends. Residues, ends and D or L forms follow the SMILES beside them. *: point of attachment. C20 diacid = O=C(O)CCCCCCCCCCCCCCCCCCC(=O)*; γGlu = O=C(O)[C@H](CCC(=O)[*:2])N[*:1]
# Experiments:
# [1] = Assay (III) ThT fibrillation assay for physical stability; assay type: physicochemical
# Summary of the method: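 Freshly prepared formulations, pH-adjusted, with 1 μM ThT; four or eight replicates incubated at 37 °C under 960 rpm orbital shaking. Fluorescence (ex 444/em 485 nm) read every 20 min; […]. Peptide concentration measured by RP-HPLC before and after the run.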
# [2] = target: T1, human amylin receptor (amylin 3(a) receptor: human calcitonin receptor + RAMP-3) (Homo sapiens, UniProt O60896+P30988); assay: Assay (II)a functional CRE-luciferase assay, human amylin receptor; assay type: cell-based; details: Table 2; BHK amylin 3(a)-receptor/CRE-luc cells
# T1 construct: expressed in transfected cells; host or cells: BHK570
# T1 sequence (P30988 25-474): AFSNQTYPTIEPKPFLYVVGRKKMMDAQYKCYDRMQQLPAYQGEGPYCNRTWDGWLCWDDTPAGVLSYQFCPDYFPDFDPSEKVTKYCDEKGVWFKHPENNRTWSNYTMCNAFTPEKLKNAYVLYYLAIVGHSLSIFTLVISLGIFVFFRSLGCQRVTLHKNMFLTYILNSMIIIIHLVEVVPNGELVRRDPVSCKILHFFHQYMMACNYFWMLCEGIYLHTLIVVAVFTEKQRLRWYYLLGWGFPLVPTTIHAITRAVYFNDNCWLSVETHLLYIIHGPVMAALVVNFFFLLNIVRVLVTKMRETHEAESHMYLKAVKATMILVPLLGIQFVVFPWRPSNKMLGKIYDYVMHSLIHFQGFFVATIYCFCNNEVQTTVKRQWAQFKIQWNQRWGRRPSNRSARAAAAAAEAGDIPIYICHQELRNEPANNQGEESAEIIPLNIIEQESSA
# T1 sequence (O60896 24-148 partner): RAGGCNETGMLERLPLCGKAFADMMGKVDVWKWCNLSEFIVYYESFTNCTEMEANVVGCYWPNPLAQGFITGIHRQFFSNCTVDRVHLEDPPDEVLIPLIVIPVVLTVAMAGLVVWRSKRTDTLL
# [3] = Assay (IV) determination of solubility; assay type: physicochemical
# Summary of the method: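 Polypeptide in water (~500 nmol/ml) mixed 1:1 with 100 mM glycylglycine (pH 3.0–5.0) or bistrispropane (pH 6.0–8.0) buffers. Held 18 hours at room temperature, then centrifuged. Polypeptide remaining in solution quantified by HPLC.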
# [4] = target: T2, human calcitonin receptor (Homo sapiens, UniProt P30988); assay: Assay (II)a functional CRE-luciferase assay, human calcitonin receptor; assay type: cell-based; details: Table 7; human calcitonin (CTa) receptor
# T2 construct: expressed in transfected cells; host or cells: BHK570
# T2 sequence (P30988 25-474): T1 sequence (P30988 25-474)
# [5] = bistrispropane buffer, pH 6, pH 6.0, read-out: Solubility pH 6.0
# [6] = bistrispropane buffer, pH 6.5, pH 6.5, read-out: Solubility pH 6.5
# [7] = bistrispropane buffer, pH 7, pH 7.0, 18 hours at room temperature, Table 3, read-out: Solubility pH 7.0
# [8] = bistrispropane buffer, pH 7, pH 7.0, read-out: Solubility pH 7.0
# [9] = bistrispropane buffer, pH 7.5, pH 7.5, read-out: Solubility pH 7.5
# [10] = bistrispropane buffer, pH 8, pH 8.0, read-out: Solubility pH 8.0
# [11] = glycylglycine buffer, pH 3, pH 3.0, read-out: Solubility pH 3.0
# [12] = glycylglycine buffer, pH 4, pH 4.0, 18 hours at room temperature, Table 2, read-out: Solubility pH 4.0
# [13] = glycylglycine buffer, pH 4, pH 4.0, read-out: Solubility pH 4.0
# [14] = glycylglycine buffer, pH 5, pH 5.0, read-out: Solubility pH 5.0
ThT pH 4.0 lag time (h) ([1]; ThT fibrillation assay),pEC50 [2],pEC50 [4],"solubility at 18 h [3, 5] [µM]","solubility at 18 h [3, 6] [µM]","solubility at 18 h [3, 7] [µM]","solubility at 18 h [3, 8] [µM]","solubility at 18 h [3, 9] [µM]","solubility at 18 h [3, 10] [µM]","solubility at 18 h [3, 11] [µM]","solubility at 18 h [3, 12] [µM]","solubility at 18 h [3, 13] [µM]","solubility at 18 h [3, 14] [µM]",Compound,further results
13,9.57,9.70,,,,,,,,,,,"CC[C@H](C)[C@H](NC(=O)[C@@H]1CCCN1C(=O)CNC(=O)[C@H](Cc1ccccc1)NC(=O)[C@H](CC(N)=O)NC(=O)[C@H](CC(N)=O)NC(=O)[C@H](CO)NC(=O)[C@H](CO)NC(=O)[C@H](Cc1c[nH]cn1)NC(=O)[C@H](Cc1c[nH]cn1)NC(=O)[C@H](CC(C)C)NC(=O)[C@H](Cc1ccccc1)NC(=O)[C@H](CCC(=O)O)NC(=O)[C@H](C)NC(=O)[C@H](CC(C)C)NC(=O)[C@H](CCCNC(=N)N)NC(=O)[C@H](CCC(N)=O)NC(=O)[C@@H](NC(=O)[C@H](C)NC(=O)[C@@H]1CSSC[C@H](NC(=O)[C@H](Cc2c[nH]cn2)NC(=O)[C@H](Cc2c[nH]cn2)NC(=O)[C@H](Cc2c[nH]cn2)NC(=O)CC[C@H](NC(=O)CCCCCCCCCCCCCCCCCCC(=O)O)C(=O)O)C(=O)N[C@@H](CC(N)=O)C(=O)N[C@@H]([C@@H](C)O)C(=O)N[C@@H](C)C(=O)N[C@@H]([C@@H](C)O)C(=O)N1)[C@@H](C)O)C(=O)N[C@@H](CC(C)C)C(=O)N1CCC[C@H]1C(=O)N[C@@H](Cc1c[nH]cn1)C(=O)N[C@H](C(=O)N[C@@H](CC(N)=O)C(=O)N[C@H](C(=O)NCC(=O)N[C@@H](CO)C(=O)N[C@@H](Cc1c[nH]cn1)C(=O)N[C@H](C(=O)N[C@@H](Cc1ccc(O)cc1)C(N)=O)[C@@H](C)O)C(C)C)[C@@H](C)O [Example 34, N-alpha-[(S)-4-Carboxy-4-(19-carboxynonadecanoylamino)butyryl]-His-His-[His1,Glu14,His17,His29,His35]-pramlintide] ({C20 diacid-γGlu}-HHHCNTATCATQRLAEFLHHSSNNFGPILPHTNVGSHTY-NH2; disulfide 4-9 (inferred))","solubility at 18 h ([3]; 18 h, pH 7, read-out: Solubility pH 7.0): 0 µM; solubility at 18 h ([3]; 18 h, pH 7.5, read-out: Solubility pH 7.5): 0 µM; solubility at 18 h ([3]; pH 3, Solubility pH 3.0): > 200 µM; solubility at 18 h ([3]; pH 4, Solubility pH 4.0): > 200 µM; solubility at 18 h ([3]; pH 4, Solubility pH 4.0 (μM)): > 200 µM; solubility at 18 h ([3]; pH 5, Solubility pH 5.0): > 200 µM; solubility at 18 h ([3]; pH 6, Solubility pH 6.0): > 200 µM; solubility at 18 h ([3]; pH 6.5, Solubility pH 6.5): 4 µM; solubility at 18 h ([3]; pH 8, Solubility pH 8.0): 13 µM"
>45,10.05,9.44,> 200,> 200,> 200,> 200,> 200,> 200,> 200,> 200,> 200,> 200,"CC[C@H](C)[C@H](NC(=O)[C@@H]1CCCN1C(=O)CNC(=O)[C@H](Cc1ccccc1)NC(=O)[C@H](CC(N)=O)NC(=O)[C@H](CC(N)=O)NC(=O)[C@H](CO)NC(=O)[C@H](CO)NC(=O)[C@H](Cc1c[nH]cn1)NC(=O)[C@H](CCCNC(=N)N)NC(=O)[C@H](CC(C)C)NC(=O)[C@H](Cc1ccccc1)NC(=O)[C@H](CCC(=O)O)NC(=O)[C@H](C)NC(=O)[C@H](CC(C)C)NC(=O)[C@H](CCCNC(=N)N)NC(=O)[C@H](CCC(N)=O)NC(=O)[C@@H](NC(=O)[C@H](C)NC(=O)[C@@H]1CSSC[C@H](NC(=O)[C@H](CCC(=O)O)NC(=O)[C@H](CCCNC(=N)N)NC(=O)[C@H](CCC(=O)O)NC(=O)CC[C@H](NC(=O)CCCCCCCCCCCCCCCCCCC(=O)O)C(=O)O)C(=O)N[C@@H](CC(N)=O)C(=O)N[C@@H]([C@@H](C)O)C(=O)N[C@@H](C)C(=O)N[C@@H]([C@@H](C)O)C(=O)N1)[C@@H](C)O)C(=O)N[C@@H](CC(C)C)C(=O)N1CCC[C@H]1C(=O)N1CCC[C@H]1C(=O)N[C@H](C(=O)N[C@@H](CC(N)=O)C(=O)N[C@H](C(=O)NCC(=O)N[C@@H](CO)C(=O)N[C@@H](CC(N)=O)C(=O)N[C@H](C(=O)N1CCC[C@H]1C(N)=O)[C@@H](C)O)C(C)C)[C@@H](C)O [Example 124, N-alpha-[(S)-4-Carboxy-4-(19-carboxynonadecanoylamino)butyryl]-Glu-Arg-[Glu1,Glu14,Arg17,Pro37]-pramlintide] ({C20 diacid-γGlu}-ERECNTATCATQRLAEFLRHSSNNFGPILPPTNVGSNTP-NH2; disulfide 4-9 (inferred))","ThT pH 4.0 lag time ([1]; Table 8): >45 h; ThT pH 4.0 lag time ([1]; Table 9): >45 h; ThT pH 4.0 lag time ([1]; ThT fibrillation assay): >45 h; solubility at 18 h ([3]; bistrispropane buffer, pH 7, pH 7.0, Table 8, read-out: Solubility pH 7.0): > 200 µM; solubility at 18 h ([3]; bistrispropane buffer, pH 7, pH 7.0, Table 9, read-out: Solubility pH 7.0): > 200 µM; solubility at 18 h ([3]; bistrispropane buffer, pH 7.5, pH 7.5, Table 9, read-out: Solubility pH 7.5): > 200 µM"
16,10.25,10.11,> 200,> 200,> 200,> 200,> 200,> 200,> 200,> 200,> 200,> 200,"CC[C@H](C)[C@H](NC(=O)[C@@H]1CCCN1C(=O)CNC(=O)[C@H](Cc1ccccc1)NC(=O)[C@H](CC(N)=O)NC(=O)[C@H](CC(N)=O)NC(=O)[C@H](CO)NC(=O)[C@H](CO)NC(=O)[C@H](CCCNC(=N)N)NC(=O)[C@H](Cc1c[nH]cn1)NC(=O)[C@H](CC(C)C)NC(=O)[C@H](Cc1ccccc1)NC(=O)[C@H](CCC(=O)O)NC(=O)[C@H](C)NC(=O)[C@H](CC(C)C)NC(=O)[C@H](CCCNC(=N)N)NC(=O)[C@H](CCC(N)=O)NC(=O)[C@@H](NC(=O)[C@H](C)NC(=O)[C@@H]1CSSC[C@H](NC(=O)[C@H](CCCCN)NC(=O)CC[C@H](NC(=O)CCCCCCCCCCCCCCCCCCC(=O)O)C(=O)O)C(=O)N[C@@H](CC(N)=O)C(=O)N[C@@H]([C@@H](C)O)C(=O)N[C@@H](C)C(=O)N[C@@H]([C@@H](C)O)C(=O)N1)[C@@H](C)O)C(=O)N[C@@H](CC(C)C)C(=O)N1CCC[C@H]1C(=O)N1CCC[C@H]1C(=O)N[C@H](C(=O)N[C@@H](CC(N)=O)C(=O)N[C@H](C(=O)NCC(=O)N[C@@H](CO)C(=O)N[C@@H](CC(N)=O)C(=O)N[C@H](C(=O)N[C@@H](Cc1ccc(O)cc1)C(N)=O)[C@@H](C)O)C(C)C)[C@@H](C)O [Example 79, N-alpha-[(S)-4-Carboxy-4-(19-carboxynonadecanoylamino)butyryl]-[Glu14,His17,Arg18]-pramlintide] ({C20 diacid-γGlu}-KCNTATCATQRLAEFLHRSSNNFGPILPPTNVGSNTY-NH2; disulfide 2-7 (inferred))",
